Test results reported in ChEMBL document CHEMBL2062415, “Steroids from Commiphora mukul display antiproliferative effect against human prostate cancer PC3 cells via induction of apoptosis” (Bioorg Med Chem Lett, 2012).
Active and inactive are the calls of the source. The rule behind the calls is not given here.

What was measured:
K562 [1] = assay: Induction of apoptosis in human K562 cells assessed as necrotic cells at 5 uM after 48 hrs by annexinV/propidium iodide staining-based FITC analysis (reference value: 1.19%); format: functional
K562 [2] = assay: Induction of apoptosis in human K562 cells assessed as late apoptotic cells at 5 uM after 48 hrs by annexinV/propidium iodide staining-based FITC analysis (reference value: 2.55%); format: functional
PC-3 [3] = assay: Cytotoxicity against human PC3 cells after 24 hrs by MTT assay; format: functional, cell-based; conditions: PC-3, 24 h
DU-145 [4] = assay: Induction of apoptosis in human DU145 cells assessed as accumulation at S phase at 40 uM after 48 hrs by propidium iodide staining-based flow cytometric analysis (reference value: 11.48%); format: functional
PC-3 [5] = assay: Induction of apoptosis in human PC3 cells assessed as necrotic cells at 10 uM after 48 hrs by annexinV/propidium iodide staining-based FITC analysis relative to control; format: functional
PC-3 [6] = assay: Induction of apoptosis in human PC3 cells assessed as late apoptotic cells at 5 uM after 48 hrs by annexinV/propidium iodide staining-based FITC analysis relative to control; format: functional
MCF7 [7] = assay: Induction of apoptosis in human MCF7 cells assessed as necrotic cells at 5 uM after 48 hrs by annexinV/propidium iodide staining-based FITC analysis (reference value: 8.28%); format: functional
MCF7 [8] = assay: Induction of apoptosis in human MCF7 cells assessed as accumulation at S phase at 5 uM after 48 hrs by propidium iodide staining-based flow cytometric analysis (reference value: 22.99%); format: functional
DU-145 [9] = assay: Induction of apoptosis in human DU145 cells assessed as accumulation at G2/M phase at 40 uM after 48 hrs by propidium iodide staining-based flow cytometric analysis (reference value: 16.14%); format: functional
K562 [10] = assay: Induction of apoptosis in human K562 cells assessed as accumulation at G2/M phase at 1 uM after 48 hrs by propidium iodide staining-based flow cytometric analysis (reference value: 15.72%); format: functional
MCF7 [11] = assay: Induction of apoptosis in human MCF7 cells assessed as accumulation at S phase at 20 uM after 48 hrs by propidium iodide staining-based flow cytometric analysis (reference value: 22.99%); format: functional
K562 [12] = assay: Induction of apoptosis in human K562 cells assessed as accumulation at G0/G1 phase at 10 uM after 48 hrs by propidium iodide staining-based flow cytometric analysis (reference value: 38.61%); format: functional
K562 [13] = assay: Induction of apoptosis in human K562 cells assessed as accumulation at S phase at 5 uM after 48 hrs by propidium iodide staining-based flow cytometric analysis (reference value: 45.67%); format: functional
PC-3 [14] = assay: Induction of apoptosis in human PC3 cells assessed as late apoptotic cells at 10 uM after 48 hrs by annexinV/propidium iodide staining-based FITC analysis relative to control; format: functional
DU-145 [15] = assay: Induction of apoptosis in human DU145 cells assessed as late apoptotic cells at 10 uM after 48 hrs by annexinV/propidium iodide staining-based FITC analysis (reference value: 2.78%); format: functional
PC-3 [16] = assay: Inhibition of cyclin B1 protein expression in human PC3 cells at 20 uM after 48 hrs by Western blot analysis; format: functional, cell-based
PC-3 [17] = assay: Induction of apoptosis in human PC3 cells assessed as early apoptotic cells at 10 uM after 48 hrs by annexinV/propidium iodide staining-based FITC analysis relative to control; format: functional
K562 [18] = assay: Induction of apoptosis in human K562 cells assessed as necrotic cells at 1 uM after 48 hrs by annexinV/propidium iodide staining-based FITC analysis (reference value: 1.19%); format: functional
PC-3 [19] = assay: Induction of apoptosis in human PC3 cells assessed as necrotic cells at 5 uM after 48 hrs by annexinV/propidium iodide staining-based FITC analysis relative to control; format: functional
DU-145 [20] = assay: Induction of apoptosis in human DU145 cells assessed as accumulation at S phase at 20 uM after 48 hrs by propidium iodide staining-based flow cytometric analysis (reference value: 11.48%); format: functional
MCF7 [21] = assay: Cytotoxicity against human MCF7 cells after 24 hrs by MTT assay; format: functional, cell-based; conditions: MCF7, 24 h
MCF7 [22] = assay: Induction of apoptosis in human MCF7 cells assessed as necrotic cells at 20 uM after 48 hrs by annexinV/propidium iodide staining-based FITC analysis (reference value: 8.28%); format: functional
MCF7 [23] = assay: Induction of apoptosis in human MCF7 cells assessed as accumulation at G0/G1 phase at 5 uM after 48 hrs by propidium iodide staining-based flow cytometric analysis (reference value: 67.46%); format: functional
DU-145 [24] = assay: Cytotoxicity against human DU145 cells after 24 hrs by MTT assay; format: functional, cell-based; conditions: DU-145, 24 h
PC-3 [25] = assay: Cell cycle arrest in human PC3 cells assessed as accumulation at S phase at 10 uM after 48 hrs by propidium iodide staining-based flow cytometric analysis relative to control; format: functional
K562 [26] = assay: Cytotoxicity against human K562 cells assessed as cell viability at 10 uM after 24 hrs by MTT assay; format: functional; conditions: K562, 24 h, read-out: Activity
DU-145 [27] = assay: Induction of apoptosis in human DU145 cells assessed as early apoptotic cells at 20 uM after 48 hrs by annexinV/propidium iodide staining-based FITC analysis (reference value: 2.34%); format: functional
PC-3 [28] = assay: Cell cycle arrest in human PC3 cells assessed as accumulation at G2/M phase at 10 uM after 48 hrs by propidium iodide staining-based flow cytometric analysis relative to control; format: functional
DU-145 [29] = assay: Induction of apoptosis in human DU145 cells assessed as accumulation at G0/G1 phase at 40 uM after 48 hrs by propidium iodide staining-based flow cytometric analysis (reference value: 72.11%); format: functional
PC-3 [30] = assay: Cell cycle arrest in human PC3 cells assessed as accumulation at G0/G1 phase at 20 uM after 48 hrs by propidium iodide staining-based flow cytometric analysis relative to control; format: functional
PC-3 [31] = assay: Induction of apoptosis in human PC3 cells assessed as early apoptotic cells at 20 uM after 48 hrs by annexinV/propidium iodide staining-based FITC analysis relative to control; format: functional
MCF7 [32] = assay: Induction of apoptosis in human MCF7 cells assessed as late apoptotic cells at 5 uM after 48 hrs by annexinV/propidium iodide staining-based FITC analysis (reference value: 3.57%); format: functional
PC-3 [33] = assay: Cytotoxicity against human PC3 cells assessed as cell viability at 10 uM after 24 hrs by MTT assay; format: functional; conditions: PC-3, 24 h, read-out: Activity
K562 [34] = assay: Induction of apoptosis in human K562 cells assessed as accumulation at S phase at 10 uM after 48 hrs by propidium iodide staining-based flow cytometric analysis (reference value: 45.67%); format: functional
MCF7 [35] = assay: Induction of apoptosis in human MCF7 cells assessed as necrotic cells at 10 uM after 48 hrs by annexinV/propidium iodide staining-based FITC analysis (reference value: 8.28%); format: functional
PC-3 [36] = assay: Decrease in Bcl-2 protein level in human PC3 cells at 5 uM after 48 hrs by Western blot analysis; format: functional, cell-based
PC-3 [37] = assay: Induction of apoptosis in human PC3 cells assessed as early apoptotic cells at 5 uM after 48 hrs by annexinV/propidium iodide staining-based FITC analysis relative to control; format: functional
PC-3 [38] = assay: Induction of apoptosis in human PC3 cells assessed as cleavage of caspase 9 at 5 to 20 uM after 48 hrs by Western blot analysis; format: functional, cell-based

Q: What does the source list for `CC[C@H](/C=C/[C@@H](C)[C@H]1CC[C@H]2[C@H]3[C@H]([C@H](O)C[C@]12C)[C@@]1(C)CC[C@H](O)CC1=C[C@H]3O)C(C)C`?
A: Activity (K562 [1]): 1.59%; Activity (K562 [2]): 1.91%; IC50 (PC-3 [3]): 10.9 µM; Activity (DU-145 [4]): 17.68%; Activity (PC-3 [5]): 2.09%; Activity (PC-3 [6]): 27.43%; Activity (MCF7 [7]): 3.47%; Activity (MCF7 [8]): 19.09%; Activity (DU-145 [9]): 35.85%; Activity (K562 [10]): 13.08%; Activity (MCF7 [11]): 19.37%; Activity (K562 [12]): 39.64%; Activity (K562 [13]): 45.5%; Activity (PC-3 [14]): 37.79%; Activity (DU-145 [15]): 2.48%; inhibition (PC-3 [16]): Active; Activity (PC-3 [17]): 1.49%; Activity (K562 [18]): 0.5%; Activity (PC-3 [19]): 1.87%; Activity (DU-145 [20]): 11.38%; IC50 (MCF7 [21]): 9.04 µM; Activity (MCF7 [22]): 4.8%; Activity (MCF7 [23]): 72.36%; IC50 (DU-145 [24]): 16.6 µM; Activity (PC-3 [25]): 23.27%; viability at 10 µM (K562 [26]): 32%; Activity (DU-145 [27]): 2.12%; Activity (PC-3 [28]): 24.03%; Activity (DU-145 [29]): 46.47%; Activity (PC-3 [30]): 55.82%; Activity (PC-3 [31]): 3.27%; Activity (MCF7 [32]): 3.47%; viability at 10 µM (PC-3 [33]): 40%; Activity (K562 [34]): 48.25%; Activity (MCF7 [35]): 4.47%; inhibition (PC-3 [36]): Active; Activity (PC-3 [37]): 1.05%; Activity (PC-3 [38]): Active
